Values of other authors, collected in patent EP0262930B1, “Process for forming a colour positive image” (KONICA CORPORATION, priority 1986, dated 1988).

Details: partition coefficient n-octanol/water; solvents not desired in the color developing solution

Row | log P | Compound
1 | log P 1.36 | Cc1ccc(CO)cc1 [p-Tolylcarbinol]
2 | log P 0.41. | CCCCOCCOCCO [Diethylene glycol monobutyl ether]
3 | log P 0.4 or more | NCc1ccccc1 [Benzylamine]
4 | log P 1.0 | OCc1ccccc1 [Benzyl alcohol]
5 | log P 0.4 or more | OCc1ccc(O)cc1 [p-Hydroxybenzyl alcohol]
6 | log P 0.41 | OCCOCc1ccccc1 [2-Benzyloxyethanol]
7 | log P 0.4 or more | CCCCCO [1-Pentanol]

Row | Compound | log P
8 | Oc1ccccc1 [Phenol] | log P 0.4 or more
